Experimental data: PMC9481570, “A small molecule antagonist of SMN disrupts the interaction between SMN and RNAP II” (Nature Communications, 2022)
pKd: −log10 of the molar value.

Target: T1, SMN_Y130A (Homo sapiens, UniProt Q16637, Y130A)
T1 construct: cloned into pET28-MHL vector: SMN (aa 82–147); His (N, cleaved yes); made in house; host or cells: E. coli BL21 (DE3) Codon plus RIL
Assay: ITC binding to SMN Tudor mutant Y130A
Details: Fig. 3d
Source text: The coding DNA fragments of following Tudor domains were cloned into pET28-MHL vector: SMN (aa 82–147), UHRF1 (aa 126–285), SMNDC1 (aa 53–130), TDRD3 (aa 554–611), SND1 (aa 650–910), TDRD2 (aa 327–420), FXR1 (aa 2–132), PHF1 (aa 28–87), SGF29 (aa 115–293), JMJD2A (aa 897–1101), 53BP1 (aa 1483–1606), SETDB1 (aa 190–410), LBR (aa 1–67), ZGPAT (aa 120–271). The coding regions of chromodomain of CBX7 (aa 8–62), PWWP domain of DNMT3A (aa 275–417), WD40 repeats of WDR5 (aa 24–334) and CW domain of ZCWPW2 (aa 21–78) were also subcloned into pET28-MHL vector to generate N-terminally His-tagged fusion protein. The MBT repeats of L3MBTL1 (aa 200–522) and L3MBTL2 (aa 170–625) were subcloned into pET28GST-LIC vector to generate N-terminally GST-His-tagged fusion protein. All the plasmids were generated by ligase independent cloning (Vazyme Biotech, C112 or ABclonal Technology, RK21020). […] The molecular weight of all protein samples was measured by mass spectrometry.
For the ITC measurement, the concentrated proteins were diluted into 20 mM Tris-HCl, pH 7.5, 150 mM NaCl (ITC buffer); the lyophilized compounds were dissolved in the same buffer, and the pH value was adjusted by adding 2 M NaOH or 2 M HCl. […] Compound concentrations were calculated from the mass and the volume of the solvent. […]

T1 sequence (Q16637 82-147 Y130A): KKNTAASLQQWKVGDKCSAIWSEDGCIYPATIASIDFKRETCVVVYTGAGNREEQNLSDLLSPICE

## Cn1c2c(c(=N)c3c1CCC3)CCC2 [Compound 1, 4-methyl-2,3,4,5,6,7-hexahydrodicyclopenta[b,e]pyridin-8(1H)-imine]
  pKd: < 3.61
